Test [1] relates to AAV-ASYN injected mice. The test is described as follows: Neuroprotection in the AAV-ASYN mouse model. The test is classed as in vivo. The conditions noted are these: 10 mg/kg every 12 h for 2 weeks, vs vehicle. On the procedure:
Because the predictive validity of toxin-based mouse PD models for neuroprotection in humans is questionable, we proceeded to test the effect of compound 3 in a mouse model, where AAV viruses overexpressing wt alpha-synuclein (AAV-ASYN) under the chicken beta-actin promoter were unilaterally injected, combined with contralateral injections of (AAV-GFP). The same compound 3 (10 mg/kg every 12 h for 2 weeks) or vehicle treatment regimen was followed as in the toxin models.

Test [2] deals with human midbrain-specific iPSc-derived DAergic neurons. As to the kind of experiment: Survival of iPSc-derived DAergic neurons exposed to MPP+. The conditions noted are these: within 24 hours, compared to vehicle. Type of test: cell-based. The method, then:
To ascertain the translational therapeutic potential of compound 3, we tested whether human midbrain-specific iPSc-derived DAergic neurons, as indicated by positive staining and qPCR for the neuronal markers MAP2, TH, FoxA2, Lmx1 and En1, can be protected from MPP+ toxicity. Compound 3 was able to double the number of surviving neurons after MPP+ exposure within 24 hours, compared to vehicle (FIGS. 72J-72L). The surviving control neurons had fewer and retreating projections, indicating compromised function (FIG. 72K) while the neurons that had received compound 3 had retained a complex network of projections and contacts (FIG. 72L). In addition, we tested compound 3 in iPSc-derived DAergic neurons from a PD patient carrying the LRRK2-G2019S mutation.

The test system of test [3] is ASYN transgenic mice. The test is described as follows: Striatal dopamine levels in ASYN transgenic mice by HPLC. Type of test: in vivo, mouse. Conditions: single IP 10 mg/kg, vs vehicle. The method, then: (§1) Given the role of Nurr1:RXRα activation in the transcriptional regulation of DA biosynthesis genes, we tested whether compound 3 could increase DA levels in wt and ASYN transgenic mice (Tofaris et al. J. Neurosci. 26:3942-3950, 2006), which display reduced striatal DA levels after reaching adulthood. […] Aiming to model PD based on human genetic data, we also tested whether compound 3 could increase DA levels in ASYN transgenic mice. A single IP injection of compound 3 (10 mg/kg) was able increase striatal DA (t test p=0.01069) and DA metabolite levels in ASYN transgenics as well (FIG. 75C) in comparison to mice receiving vehicle.

The subject of test [4] is SHSY-5Y dopaminergic cells. The test is described as follows: MPP+ induced cell death, MTT assay. Type of test: cell-based, human. The method, then:
MPP+, eradicates approximately 75% of the cells in 24 hours. […] Naive Neuro2A cells (FIG. 2A) or SH-SY5Y neuroblastoma cells FIG. 2B,C) were cultured in RPMI 1640, 10% fetal bovine serum at 37° C. Cells were pretreated with compound 3 for 12-24 h. Subsequent change of culture medium with addition of 0, 1, 2 and 4 mM MPP+ induced cell death. MTT assays determined the relative number of surviving cells FIG. 2D).
Such assays were performed, for instance, by adding compound 46 (12.5 μM) to human origin SHSY-5Y dopaminergic cells in which death was induced by the mitochondria complex I inhibitor MPP+ (1-methyl-4-phenylpyridinium), the active metabolite of MPTP (1-methyl-4-phenyl-1,2,3,6-tetrahydropyridine). […] Most of the MPP+-treated cells receiving vehicle died, while the few surviving cells remained attached to the plate but were rounded and had lost all projections. These morphological changes indicated impaired neuronal function. On the contrary, cells treated with compound 46 appeared healthy, flattened, well-attached, and their projections remained intact.
We examined the neuroprotective capability of Nurr1:RXRα heterodimer activation in SHSY-5Y cells where death was induced by either the oxidative stress related H2O2 or the mitochondria complex I inhibitor MPP+ (1-methyl-4-phenylpyridinium) (FIG. 72B). […] The protection conferred by compound 3 was Nurr1-dependent, since it was abrogated by knocking-down endogenous Nurr1 mRNA (FIGS. 1E and 72D). The neuroprotective effects of compound 3 extend to damage induced by the PD-associated mutation G2019S in the Leucine-Rich Repeat Kinase 2 (LRRK2) gene, the most common genetic defect associated with clinical PD (Tofaris et al. J. Neurosci. 26:3942-3950, 2006). Rat cortical neurons, co-transfected with CMV-GFP for identification, and CMVLRRK2-G2019S cDNAs show increased apoptosis as assessed by DAPI staining, compared to control neurons co-transfected with a LRRK2 wt cDNA.
Background: Formazan colour is commonly taken as a measure of viable cells.

The subject of test [5] is tyrosine hydroxylase (TH). As to the kind of experiment: Midbrain tyrosine hydroxylase expression by qPCR after administration to mice. Type of test: in vivo, mouse. The conditions noted are these: wt mice, single IP 10 mg/kg, within 4 hours. The method, then: (§2) To assess the neuroprotective effect of compound 3, this compound was dosed to wt mice intraperitoneally (IP) at 10 mg/kg injections of compound 3 in Ethanol:PG:Saline 10:30:60. After 2 h and 4 h animals (n=3 per time point) were sacrificed, and their brains obtained. After extraction c-jun and tyrosine hydroxylase (TH) levels in brain extract were determined by qPCR (FIG. 1E, 1F).
as §1
(Real-time PCR tracks product formation cycle by cycle.)

In test [6] the test system is c-jun. As to the kind of experiment: Midbrain c-jun expression by qPCR after administration to mice. Type of test: in vivo, mouse. Conditions: IP compound 3, qPCR 2 hours after administration. The method, then:
FIGS. 69A-69C show the brain penetration, half-life, and c-jun transcriptional activation of compound 3. […] Mice (n=5) were sacrificed 1, 2, 4, 8 and 24 hours after IP administration and brains were dissected 1, 2, 4, 8 and 24 hours post administration. The concentrations of the parent compound in plasma and brain were determined by LC/MSMS.
as §2

For test [7], the system named is C57BL/6 mice exposed to MPTP. As to the kind of experiment: Neuroprotection in the acute MPTP mouse model. The test is classed as in vivo.

Each structure is given as a SMILES string. Where only a bound is given, the exact number is not on record here.

As to `C=CCc1c(N(C)c2ccc(C(=O)O)cc2)nc(-c2ccccc2)nc1C(F)(F)F` [Example 3, 4-((5-allyl-2-phenyl-6-(trifluoromethyl)pyrimidin-4-yl)(methyl)amino)benzoic acid], the “number of NeuN(+) midbrain neurons” value in test [1] is “increased”. The “increase of TH(+) midbrain neurons” value in test [1] (listed as Compound 3) is 48%; in test [1] (listed as compound 3), “about 47%”. Further, the “number of surviving neurons after MPP+ exposure” value in test [2] is given as “double”. The “striatal DA and DA metabolite levels” value in test [3] was “increase”. The “cell survival against MPP+” value in test [4] (12.5 μM, varying concentrations of MPP+) is on record as “significantly increased cell survival”. The “number of surviving cells after MPP+” value in test [4] (pretreated 12-24 h, MPP+ 24 hours, MTT) is reported as “approximately doubles”. In addition, the “TH gene expression in the midbrain” value in test [5] is recorded as “increased”. Besides, the midbrain c-jun expression entry in test [6] is on record as “increased”. Besides, the “remaining SN axonal terminals in the striatum” value in test [7] (10 mg/kg IP every 12 hours) is reported as “doubling”. For the same compound, in test [7] (10 mg/kg IP every 12 hours for 6 days, stereology), the “increase of TH(+) midbrain neuron survival” value came to 31%. Besides, the “improvement of motor coordination (accelerating rotarod)” value in test [7] (10 mg/kg IP every 12 hours for 6 days, vs vehicle) was greater than 100%. In test [7] (20 mg/kg once a day), the “neuroprotection with once-a-day injection regimen” value is “ineffective”. Further, the “increase in number of surviving neuronal bodies (SNpc)” value in test [7] (C57/BL6, IP 10 mg/kg every 12 hours for 8 days) is 33.5%.

These data come from patent US10946019B2, “Nurr1:RXR activating compounds for simultaneous treatment of symptoms and pathology of Parkinson's disease” (priority 2015, dated 2021).
